Measured values taken from PubChem BioAssay AID1919016 (Molecular Pharmacology Branch, DTP, NCI, 2023).
pIC50: −log10 of the molar value.

Test system: NCI-H196 complex spheroid growth, percent test/control
Assay: Anticancer human tumor NCI-H196 cell line growth inhibition [AhR];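 further: seven days of drug exposure starting three days after plating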;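 on viability, T/C: 100% = DMSO vehicle control wells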
Conditions: for pIC50: curve of first compound; for viability, T/C: stronger effect = lower value
Procedure, shortened: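 Complex tumor spheroids co-cultured with HUVEC and human MSC stroma; AhR antagonists tested in combination with standard-of-care and investigational agents. Top concentration at or near clinical Cmax (else 10 microM), half-log dilutions; growth expressed as percent test/control.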

[1] = second compound 0.1 µM, first compound 0.0316 µM
[2] = second compound 0.1 µM, first compound 0.1 µM
[3] = second compound 0.1 µM, first compound 0.316 µM
[4] = second compound 0.1 µM, first compound 1 µM
[5] = second compound 0.1 µM, first compound 3.16 µM
[6] = second compound 0.1 µM, first compound 10 µM
[7] = second compound 0.316 µM, first compound 0.0316 µM
[8] = second compound 0.316 µM, first compound 0.1 µM
[9] = second compound 0.316 µM, first compound 0.316 µM
[10] = second compound 0.316 µM, first compound 1 µM
[11] = second compound 0.316 µM, first compound 3.16 µM
[12] = second compound 0.316 µM, first compound 10 µM
[13] = second compound 1 µM, first compound 0.0316 µM
[14] = second compound 1 µM, first compound 0.1 µM
[15] = second compound 1 µM, first compound 0.316 µM
[16] = second compound 1 µM, first compound 1 µM
[17] = second compound 1 µM, first compound 3.16 µM
[18] = second compound 1 µM, first compound 10 µM
[19] = second compound 3.16 µM, first compound 0.0316 µM
[20] = second compound 3.16 µM, first compound 0.1 µM
[21] = second compound 3.16 µM, first compound 0.316 µM
[22] = second compound 3.16 µM, first compound 1 µM
[23] = second compound 3.16 µM, first compound 3.16 µM
[24] = second compound 3.16 µM, first compound 10 µM
[25] = second compound 10 µM, first compound 0.0316 µM
[26] = second compound 10 µM, first compound 0.1 µM
[27] = second compound 10 µM, first compound 0.316 µM
[28] = second compound 10 µM, first compound 1 µM
[29] = second compound 10 µM, first compound 3.16 µM
[30] = second compound 10 µM, first compound 10 µM

Work on `Nc1ccccc1NC(=O)c1ccc(CNC(=O)OCc2cccnc2)cc1` + Cc1ccccc1N=Nc1ccc(NC(=O)c2ccnn2C)c(C)c1 yielded a pIC50 (second compound 0.1 µM) of 6.10, a pIC50 (second compound 0.316 µM) of 6.07 and a pIC50 (second compound 1 µM) of 6.00. The pIC50 (second compound 3.16 µM) was 6.12, the pIC50 (second compound 10 µM) was 5.92 and the viability, T/C [1] was 88%. For the same compound, the viability, T/C [2] was 78.3%, the viability, T/C [3] was 71.9% and the viability, T/C [4] was 44.8%. It also gave a viability, T/C [5] of 15%, a viability, T/C [6] of 0.96% and a viability, T/C [7] of 85%. For the same compound, the viability, T/C [8] was 83.9%, the viability, T/C [9] was 73.3% and the viability, T/C [10] was 44.9%. The viability, T/C [11] was 18.5%, the viability, T/C [12] was 1% and the viability, T/C [13] was 85.8%. For the same compound, the viability, T/C [14] was 89.8%, the viability, T/C [15] was 74.9% and the viability, T/C [16] was 48.6%. It also gave a viability, T/C [17] of 20.7%, a viability, T/C [18] of 1.92% and a viability, T/C [19] of 91.9%. The viability, T/C [20] was 80.8%, the viability, T/C [21] was 70.5% and the viability, T/C [22] was 44%. For the same compound, the viability, T/C [23] was 18.5%, the viability, T/C [24] was 1.99% and the viability, T/C [25] was 88.8%. The viability, T/C [26] was 94.7%, the viability, T/C [27] was 72.7% and the viability, T/C [28] was 55.2%. It also gave a viability, T/C [29] of 26.5% and a viability, T/C [30] of 3.32%.
Compound `O=C(C=Cc1cccc(S(=O)(=O)Nc2ccccc2)c1)NO` + Cc1ccccc1N=Nc1ccc(NC(=O)c2ccnn2C)c(C)c1 has a pIC50 (second compound 0.1 µM) of 5.83, a pIC50 (second compound 0.316 µM) of 5.75 and a pIC50 (second compound 1 µM) of 5.76. The pIC50 (second compound 3.16 µM) was 5.73, the pIC50 (second compound 10 µM) was 5.69 and the viability, T/C [1] was 93%. It also gave a viability, T/C [2] of 100%, a viability, T/C [3] of 87.8% and a viability, T/C [4] of 62%. The viability, T/C [5] was 25.5%, the viability, T/C [6] was 0.66% and the viability, T/C [7] was 92.7%. The viability, T/C [8] was 96.5%, the viability, T/C [9] was 104% and the viability, T/C [10] was 69.9%. For the same compound, the viability, T/C [11] was 27.4%, the viability, T/C [12] was 0.67% and the viability, T/C [13] was 102%. For the same compound, the viability, T/C [14] was 94.5%, the viability, T/C [15] was 90.4% and the viability, T/C [16] was 74.2%. It also gave a viability, T/C [17] of 23.7%, a viability, T/C [18] of 3.01% and a viability, T/C [19] of 93.6%. The viability, T/C [20] was 91.9%, the viability, T/C [21] was 91.1% and the viability, T/C [22] was 72%. It also gave a viability, T/C [23] of 31.3%, a viability, T/C [24] of 1.68% and a viability, T/C [25] of 87.9%. For the same compound, the viability, T/C [26] was 90.8%, the viability, T/C [27] was 81.6% and the viability, T/C [28] was 72.4%. For the same compound, the viability, T/C [29] was 36.4% and the viability, T/C [30] was 0.98%.
`O=C(c1cc(Cc2n[nH]c(=O)c3ccccc23)ccc1F)N1CCN(C(=O)C2CC2)CC1` + Cc1ccccc1N=Nc1ccc(NC(=O)c2ccnn2C)c(C)c1 gave a pIC50 (second compound 0.1 µM) of under 5.00, a pIC50 (second compound 0.316 µM) of under 5.00 and a pIC50 (second compound 1 µM) of under 5.00. It also gave a pIC50 (second compound 3.16 µM) of under 5.00, a pIC50 (second compound 10 µM) of under 5.00 and a viability, T/C [1] of 109%. It also gave a viability, T/C [2] of 101%, a viability, T/C [3] of 107% and a viability, T/C [4] of 94.1%. For the same compound, the viability, T/C [5] was 91.4%, the viability, T/C [6] was 102% and the viability, T/C [7] was 99.5%. For the same compound, the viability, T/C [8] was 103%, the viability, T/C [9] was 102% and the viability, T/C [10] was 93.1%. For the same compound, the viability, T/C [11] was 108%, the viability, T/C [12] was 102% and the viability, T/C [13] was 99.4%. It also gave a viability, T/C [14] of 107%, a viability, T/C [15] of 98.3% and a viability, T/C [16] of 99.1%. The viability, T/C [17] was 100%, the viability, T/C [18] was 93.6% and the viability, T/C [19] was 90.8%. It also gave a viability, T/C [20] of 105%, a viability, T/C [21] of 95.9% and a viability, T/C [22] of 108%. The viability, T/C [23] was 96.9%, the viability, T/C [24] was 101% and the viability, T/C [25] was 87.2%. The viability, T/C [26] was 90.1%, the viability, T/C [27] was 99.1% and the viability, T/C [28] was 98.8%. For the same compound, the viability, T/C [29] was 103% and the viability, T/C [30] was 83.4%.
